# In patent US11052092B2, “N-{[2-(piperidin-1-yl)phenyl](phenyl)methyl}-2-(3-oxo-3,4-dihydro-2H-1,4-benzoxazin-7-yl)acetamide derivatives and related compounds as ROR-gamma modulators for treating autoimmune diseases” (Genfit, priority 2017, dated 2021):
# Several values for one entry are separate records, joined by “and”; a condition that tells them apart may be missing. Equal values may be shown once.
# Key:
# [1] = target: T1, RORγt ligand-binding domain (RORγt-LBD) (Homo sapiens, UniProt P51449); experiment: Time-resolved FRET (TR-FRET) RORγt coactivator assay; settings: GST-RORγ-LBD, biotinylated RIP140 peptide, 2 hours at room temperature
# T1 construct: 20 nM recombinantly expressed RORγ-LBD fused to GST
# T1 sequence (P51449 269-508 limits assumed): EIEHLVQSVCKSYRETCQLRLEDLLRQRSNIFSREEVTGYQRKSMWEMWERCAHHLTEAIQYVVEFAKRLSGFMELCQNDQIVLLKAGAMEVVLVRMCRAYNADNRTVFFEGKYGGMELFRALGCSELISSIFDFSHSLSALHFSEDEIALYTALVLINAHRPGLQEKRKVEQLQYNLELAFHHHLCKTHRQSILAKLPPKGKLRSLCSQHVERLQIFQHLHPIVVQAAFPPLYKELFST
# Source text: Time-resolved FRET (TR-FRET) RORγt coactivator assay was used to identify RORγ modulator compounds with ligand-dependent coactivator displacement. The assay uses a d2-labeled anti-GST antibody, synthetic N-terminally biotinylated peptide which is derived from nuclear receptor coactivator protein RIP140, and a RORγt ligand-binding domain (RORγt-LBD) that is tagged with glutathione-S-transferase (GST). The influence of compounds on the RORγ-peptide interaction relies on the binding dependent energy transfer from a donor to an acceptor fluorophor attached to the binding partner of interest. […] For reduction of background from compound fluorescence, TR-FRET method makes use of generic fluorophore labels and time resolved detection.
# The assays were done in a final volume of 20 μl in a 384 well plate in a CHAPS buffer (2 mM CHAPS; 1 mM DTT, 2 mM EDTA; 0.1% BSA), containing 20 nM recombinantly expressed RORγ-LBD fused to GST, 30 nM N-terminally biotinylated peptide, 1 nM streptavidin-terbium conjugate and 20 nM d2 labeled-anti-GST. Test compounds were diluted using 10 mM stock solution. The range of the final compound concentrations used in this test was from 0.3 nM to 30 μM (logarithmic scale). DMSO content of the samples was kept at 1%. The assay was equilibrated for 2 hours in the dark at room temperature in 384 well plates (Falcon). The signal was detected by an Ultra384 reader (TECAN). […] Compounds that promote coactivator displacement induce a concentration-dependent decrease in time-resolved fluorescent signal. Data were collected and analyzed using GraphPad Prism software (GraphPad Software V5.02, San Diego Calif. USA). IC50 in μM and Emax in % were reported for each compound.
# [2] = target: T2, human RORγt (Homo sapiens, UniProt P51449); experiment: RORE Luciferase/RORγt transactivation assay; type: cell-based; settings: COS-7 cells transfected with human IL-17 promoter luciferase reporter and RORγt plasmid; 20 h with compound; read-out: IC50, RORγt activity inhibition
# T2 construct: the full-length cDNA of human RORγt; expressed in transfected cells; host or cells: COS-7 (monkey kidney)
# T2 sequence (P51449 1-497 isoform P51449-2): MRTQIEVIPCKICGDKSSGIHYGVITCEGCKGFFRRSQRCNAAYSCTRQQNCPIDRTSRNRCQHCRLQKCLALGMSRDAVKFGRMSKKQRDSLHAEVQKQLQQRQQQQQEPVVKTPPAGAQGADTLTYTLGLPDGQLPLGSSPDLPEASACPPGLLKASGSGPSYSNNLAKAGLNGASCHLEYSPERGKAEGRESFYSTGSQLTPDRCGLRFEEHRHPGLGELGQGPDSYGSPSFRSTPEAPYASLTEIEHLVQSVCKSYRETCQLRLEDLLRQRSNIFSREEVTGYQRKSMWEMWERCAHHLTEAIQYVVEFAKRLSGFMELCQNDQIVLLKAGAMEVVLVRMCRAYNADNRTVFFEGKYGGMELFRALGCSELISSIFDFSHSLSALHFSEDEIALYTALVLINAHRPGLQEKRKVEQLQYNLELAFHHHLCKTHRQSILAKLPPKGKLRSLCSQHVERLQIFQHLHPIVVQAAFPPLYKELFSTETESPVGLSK
# Summary of the method: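 COS-7 cells were transiently co-transfected with a human IL-17 promoter (RORE/CNS)–luciferase reporter and a RORγt expression plasmid, then seeded at 10000 cells/well in serum-free, phenol red-free DMEM. Compounds were added at 0.3% DMSO final. Luciferase was read with Steady-Glo, and IC50 and Emax were derived.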
# [3] = test system: Murine EL-4 lymphoma cell line overexpressing human RORγt; experiment: IL-17 secretion from EL4 murine lymphoma; type: cell-based; settings: Mus musculus; human RORγt-transfected EL4 cells, PMA (10 ng/mL) and ionomycin (1 μM), 24 h; read-out: IC50, IL-17 secretion inhibition
# Summary of the method: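 EL-4 cells electroporated with hRORγt plasmid, seeded at 150000 cells/well and pretreated with compound for 24 h, then stimulated with PMA (10 ng/mL) plus ionomycin (1 μM final) with compound for a further 24 h at 37 °C. IL-17 in supernatant measured by HTRF or ELISA.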
Compound,IC50 [1] [nM],IC50 [2],IC50 [3] [nM],melting point [°C]
"CCOc1nc2cc(CC(=O)NC(c3ccccc3)c3ccc(C)cc3Br)ccc2[nH]1 (stereo not shown) [Cpd. 90, N-[(2-bromo-4-methylphenyl)(phenyl)methyl]-2-(2-ethoxy-1H-1,3-benzodiazol-5-yl)acetamide]",10 to 100,10 to 100 nM,100 to 1000,–
"Cc1ccc(C(NC(=O)Cc2ccc3c(c2)C(O)C(=O)N3C)c2ccc(C)o2)c(N2CCCCC2)c1 (stereo not shown) [Cpd. 53, 2-(3-hydroxy-1-methyl-2-oxo-2,3-dihydro-1H-indol-5-yl)-N-{[4-methyl-2-(piperidin-1-yl)phenyl](5-methylfuran-2-yl)methyl}acetamide]",< 10,10 to 100 nM,100 to 1000,–
"COc1ccc(C(NC(=O)Cc2ccc3c(c2)OCC(=O)N3)c2ccccc2)c(N2CCCCC2)c1 (stereo not shown) [Cpd. 4, N-{[4-methoxy-2-(piperidin-1-yl)phenyl](phenyl)methyl}-2-(3-oxo-3,4-dihydro-2H-1,4-benzoxazin-7-yl)acetamide]",10 to 100,100 to 1000 nM,100 to 1000,–
"Cc1ccc(C(NC(=O)C2(c3ccc4c(c3)CS(=O)(=O)C4)CC2)c2ccc(C)o2)c(C)c1 (stereo not shown) [Cpd. 74, N-[(2,4-dimethylphenyl)(5-methylfuran-2-yl)methyl]-1-(2,2-dioxo-1,3-dihydro-2-benzothiophen-5-yl)cyclopropane-1-carboxamide]",< 10,10 to 100 nM,100 to 1000,–
"O=C1COc2cc(CC(=O)NC(c3ccccc3)c3ccccc3N3CCCC3)ccc2N1 (stereo not shown) [Cpd. 5, 2-(3-oxo-3,4-dihydro-2H-1,4-benzoxazin-7-yl)-N-{phenyl[2-(pyrrolidin-1-yl)phenyl]methyl}acetamide]",10 to 100,1000 to 10000 nM,> 10000,–
"Cc1ccc(C(NC(=O)C2(c3ccc4[nH]cc(CCO)c4c3)CC2)c2ccc(C)o2)c(C)c1 (stereo not shown) [Cpd. 60, N-[(2,4-dimethylphenyl)(5-methylfuran-2-yl)methyl]-1-[3-(2-hydroxyethyl)-1H-indol-5-yl]cyclopropane-1-carboxamide]",< 10,< 10 nM,< 100,–
"CCSc1nc2cc(CC(=O)NC(c3ccccc3)c3ccc(C)cc3Br)ccc2[nH]1 (stereo not shown) [Cpd. 92, N-[(2-bromo-4-methylphenyl)(phenyl)methyl]-2-[2-(ethylsulfanyl)-1H-1,3-benzodiazol-5-yl]acetamide]",100 to 1000,10 to 100 nM,100 to 1000,–
"Cc1ccc(C(NC(=O)C2(c3ccc4c(c3)CS(=O)(=O)N4)CC2)c2ccc(Cl)o2)c(C)c1 (stereo not shown) [Cpd. 87, N-[(5-chlorofuran-2-yl)(2,4-dimethylphenyl)methyl]-1-(2,2-dioxo-1,3-dihydro-2,1-benzothiazol-5-yl)cyclopropane-1-carboxamide]",< 10,10 to 100 nM,< 100,–

# Now from value to molecule:
IC50 [1] [nM],IC50 [2],IC50 [3] [nM],melting point [°C],Compound
100 to 1000,100 to 1000 nM,1000 to 10000,–,"Cc1ccc(C(NC(=O)Cc2ccc3c(c2)OC(C)(C)C(=O)N3)c2ccc(C)o2)c(N2CCCCC2)c1 (stereo not shown) [Cpd. 25, 2-(2,2-dimethyl-3-oxo-3,4-dihydro-2H-1,4-benzoxazin-7-yl)-N-{[4-methyl-2-(piperidin-1-yl)phenyl](5-methylfuran-2-yl)methyl}acetamide]"
< 10,10 to 100 nM,100 to 1000,–,"Cc1ccc(C(NC(=O)Cc2ccc3c(c2)CS(=O)(=O)N3)c2ccc(C)o2)c(N2CCCCC2)c1 (stereo not shown) [Cpd. 27, 2-(2,2-dioxo-1,3-dihydro-2,1-benzothiazol-5-yl)-N-{[4-methyl-2-(piperidin-1-yl)phenyl](5-methylfuran-2-yl)methyl}acetamide]"
< 10,10 to 100 nM,100 to 1000,–,"Cc1ccc(C(NC(=O)C2(c3ccc4c(c3)CS(=O)(=O)N4)CC2)c2ccc(C)o2)c(N(C)C)c1 (stereo not shown) [Cpd. 71, N-{[2-(dimethylamino)-4-methylphenyl](5-methylfuran-2-yl)methyl}-1-(2,2-dioxo-1,3-dihydro-2,1-benzothiazol-5-yl)cyclopropane-1-carboxamide]"
100 to 1000,100 to 1000 nM,1000 to 10000,–,"Cc1ccc(C(NC(=O)Cc2ccc3c(c2)C(=Cc2cnc(N)s2)C(=O)N3)c2ccc(C)o2)c(N2CCCCC2)c1 (stereo not shown) [Cpd. 44, 2-{3-[(2-amino-1,3-thiazol-5-yl)methylidene]-2-oxo-2,3-dihydro-1H-indol-5-yl}-N-{[4-methyl-2-(piperidin-1-yl)phenyl](5-methylfuran-2-yl)methyl}acetamide]"
10 to 100,100 to 1000 nM and 10 to 100 nM,100 to 1000,–,"Cc1ccc(C(NC(=O)Cc2ccc3c(c2)CC(=O)N3)c2ccccc2)c(N2CCCCC2)c1 (stereo not shown) [Cpd. 16, N-{[4-methyl-2-(piperidin-1-yl)phenyl](phenyl)methyl}-2-(2-oxo-2,3-dihydro-1H-indol-5-yl)acetamide]"
< 10,10 to 100 nM,100 to 1000,–,"Cc1ccc(C(NC(=O)C2(c3ccc4c(c3)OCS(=O)(=O)N4)CC2)c2ccc(C)o2)c(C)c1 (stereo not shown) [Cpd. 124, N-[(2,4-dimethylphenyl)(5-methylfuran-2-yl)methyl]-1-(2,2-dioxo-1,3-dihydro-4,2,1-benzoxathiazin-6-yl)cyclopropane-1-carboxamide]"
10 to 100,10 to 100 nM,100 to 1000,138,"Cc1ccc(C(NC(=O)Cc2ccc3[nH]c(C)nc3c2)c2ccccc2)c(Br)c1 (stereo not shown) [Cpd. 81, N-[(2-bromo-4-methylphenyl)(phenyl)methyl]-2-(2-methyl-1H-1,3-benzodiazol-5-yl)acetamide]"
< 10,10 to 100 nM,< 100,–,"Cc1ccc(C(NC(=O)C2(c3ccc4c(c3)CC(=O)N4C)CC2)c2ccc(C)o2)c(C)c1 (stereo not shown) [Cpd. 130, N-[(2,4-dimethylphenyl)(5-methylfuran-2-yl)methyl]-1-(1-methyl-2-oxo-2,3-dihydro-1H-indol-5-yl)cyclopropane-1-carboxamide]"
< 10,< 10 nM,< 100,–,"Cc1ccc(C(NC(=O)C2(c3ccc4c(c3)CC(=O)N4)CC2)c2ccc(Cl)o2)c(C)c1 (stereo not shown) [Cpd. 86, N-[(5-chlorofuran-2-yl)(2,4-dimethylphenyl)methyl]-1-(2-oxo-2,3-dihydro-1H-indol-5-yl)cyclopropane-1-carboxamide]"
< 10,< 10 nM,< 100,–,"Cc1ccc(C(NC(=O)C2(c3ccc4c(c3)OCC(=O)N4)CC2)c2ccc(C)o2)c(C)c1 (stereo not shown) [Cpd. 59, N-[(2,4-dimethylphenyl)(5-methylfuran-2-yl)methyl]-1-(3-oxo-3,4-dihydro-2H-1,4-benzoxazin-7-yl)cyclopropane-1-carboxamide]"
10 to 100,1000 to 10000 nM,> 10000,–,"Cc1ccc(C(NC(=O)Cc2ccc3c(c2)OCC(=O)N3)c2ccccc2)c(N2CCOCC2)c1 (stereo not shown) [Cpd. 2, N-{[4-methyl-2-(morpholin-4-yl)phenyl](phenyl)methyl}-2-(3-oxo-3,4-dihydro-2H-1,4-benzoxazin-7-yl)acetamide]"
